Test system: LdtMt2^C354S
Type: biochemical, Mycobacterium tuberculosis

GlcNAc-Muramitol-L-Ala-D-iGluNH2-m-DAPNH2-D-Ala [Compound 2]
Product formation with LdtMt2^C354S: no product formation was observed

lactoyl-L-Ala-D-iGluNH2-m-DAPNH2-D-Ala [Compound 3]
Product formation with LdtMt2^C354S: no product formation was observed

GlcNAc-MurNAc-L-Ala-D-iGluNH2-m-DAPNH2-D-Ala [Compound 1]
Product formation with LdtMt2^C354S: no product formation was observed

— PMC11410929, “Biochemical and crystallographic studies of L,D-transpeptidase 2 from Mycobacterium tuberculosis with its natural monomer substrate” (Communications Biology, 2024)
